# Test results published in US20240010726A1, “LFA-1 SIGNALLING MEDIATOR FOR USE IN CANCER THERAPY” (Universität Basel, priority 2020, published 2024).
# Experiments:
# LFA-1 = molecular target: T1, LFA-1 (Homo sapiens, UniProt P05107+P20701); assay: Flow cytometry of LFA-1 open head-piece (mAb m24) on EM and naïve CD8 T cells; assay type: cell-based
# T1 construct: endogenous in cells; host or cells: primary human T cells from healthy donors: PHA-induced T cell blasts, sorted EM and naive CD8 T cells, and NY-ESO-1 TCR-transduced REP T cells
# T1 sequence (P20701 26-1170): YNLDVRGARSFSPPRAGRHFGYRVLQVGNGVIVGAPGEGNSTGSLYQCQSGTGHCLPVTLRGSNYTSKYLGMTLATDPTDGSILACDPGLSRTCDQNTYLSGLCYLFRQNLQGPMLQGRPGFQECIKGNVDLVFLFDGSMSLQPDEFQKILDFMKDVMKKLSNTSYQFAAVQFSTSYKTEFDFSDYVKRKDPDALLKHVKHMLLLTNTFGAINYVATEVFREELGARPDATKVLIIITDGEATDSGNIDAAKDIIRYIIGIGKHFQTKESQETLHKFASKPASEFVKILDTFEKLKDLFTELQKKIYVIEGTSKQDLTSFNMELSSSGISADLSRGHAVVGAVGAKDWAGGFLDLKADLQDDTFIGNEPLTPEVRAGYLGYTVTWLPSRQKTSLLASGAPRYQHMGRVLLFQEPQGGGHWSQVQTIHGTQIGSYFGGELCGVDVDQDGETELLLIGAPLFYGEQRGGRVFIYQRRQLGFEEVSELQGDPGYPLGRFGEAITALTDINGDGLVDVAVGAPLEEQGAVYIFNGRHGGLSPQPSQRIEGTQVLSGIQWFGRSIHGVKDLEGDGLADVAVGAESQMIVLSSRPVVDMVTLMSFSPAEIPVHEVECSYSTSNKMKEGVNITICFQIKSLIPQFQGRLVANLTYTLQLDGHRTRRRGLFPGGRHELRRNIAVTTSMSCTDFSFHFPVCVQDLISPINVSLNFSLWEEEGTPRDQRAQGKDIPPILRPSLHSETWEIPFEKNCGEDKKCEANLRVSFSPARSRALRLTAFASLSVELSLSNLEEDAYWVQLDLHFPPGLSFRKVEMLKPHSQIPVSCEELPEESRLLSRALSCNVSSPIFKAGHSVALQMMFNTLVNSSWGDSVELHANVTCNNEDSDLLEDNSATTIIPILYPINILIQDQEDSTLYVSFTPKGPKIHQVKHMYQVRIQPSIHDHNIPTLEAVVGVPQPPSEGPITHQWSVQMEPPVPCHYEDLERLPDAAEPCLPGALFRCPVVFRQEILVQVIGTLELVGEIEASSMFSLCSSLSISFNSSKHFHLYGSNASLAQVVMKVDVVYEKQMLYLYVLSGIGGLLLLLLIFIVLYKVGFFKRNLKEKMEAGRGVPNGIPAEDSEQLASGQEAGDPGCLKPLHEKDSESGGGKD
# T1 sequence (P05107 23-769): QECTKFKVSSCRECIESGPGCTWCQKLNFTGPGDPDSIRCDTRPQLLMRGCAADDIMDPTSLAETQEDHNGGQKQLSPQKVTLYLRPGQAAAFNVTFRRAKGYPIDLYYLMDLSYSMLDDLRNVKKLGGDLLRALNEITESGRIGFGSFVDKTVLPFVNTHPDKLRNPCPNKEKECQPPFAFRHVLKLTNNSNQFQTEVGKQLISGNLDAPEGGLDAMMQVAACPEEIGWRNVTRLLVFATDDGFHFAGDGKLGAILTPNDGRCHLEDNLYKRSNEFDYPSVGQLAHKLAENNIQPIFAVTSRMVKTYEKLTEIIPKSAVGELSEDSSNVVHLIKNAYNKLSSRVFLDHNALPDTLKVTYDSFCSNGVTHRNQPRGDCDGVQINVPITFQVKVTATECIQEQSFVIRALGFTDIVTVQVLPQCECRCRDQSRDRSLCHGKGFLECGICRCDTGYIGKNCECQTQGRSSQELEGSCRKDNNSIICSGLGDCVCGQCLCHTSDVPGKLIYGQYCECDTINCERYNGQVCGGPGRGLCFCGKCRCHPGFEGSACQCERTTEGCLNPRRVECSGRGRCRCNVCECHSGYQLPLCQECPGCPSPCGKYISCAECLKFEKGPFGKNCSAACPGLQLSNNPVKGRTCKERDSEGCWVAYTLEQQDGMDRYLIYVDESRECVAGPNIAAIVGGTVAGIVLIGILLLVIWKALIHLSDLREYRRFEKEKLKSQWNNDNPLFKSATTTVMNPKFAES
# Method: FIG. 2: Extracellular magnesium promotes memory-specific activation via LFA-1. Glycolytic switch of human EM CD8 T cells (a) and naïve CD8 T cells (b) subsets upon injection of anti-CD3 Ab only, or anti-CD3 and anti-CD28 Ab, was assessed by metabolic flux analysis in medium containing either 1.2 mM Mg^2+, 0 mM Mg^2+, or medium which was reconstituted from 0 mM to 1.2 mM Mg^2+ immediately prior to activation (0→1.2 mM Mg^2+). (a) Results for human effector memory (EM) and (b) for human naïve CD8 T cells. Glycolytic switch was quantified by subtracting […] measurements. (c) Flow cytometric analysis of surface activation markers on human EM CD8 T cells 24 hours after activation by plate-bound anti-CD3 Ab and soluble anti-CD28 Ab, in 1.2 mM and 0 mM Mg^2+ media, respectively. (d) Abundance of inflammatory cytokines in corresponding EM CD8 T cell culture supernatants, determined by CBA. (e) CD11a (LFA-1) surface expression on human naïve and EM CD8 T cells as well PHA T cell blasts. Flow cytometry-based assessment of total LFA-1 expression assessed by mAb TS2/4 (f), closed conformation of αL by mAb HI111 (g), extended conformation of LFA-1 by mAb Kim127 (h), open head-piece conformation of LFA-1 by mAb m24 (i), phosphorylation of focal adhesion kinase (FAK) […] as well TNF expression (k)±TCR-induced activation in different extracellular Mg^2+ concentrations. […]
# [1] = system: luciferase-expressing EL4 target cells; assay: Cytotoxicity assay of WT and LFA-1−/− OT1 CTLs with luciferase-expressing EL4 target cells; assay type: cell-based, murine; details: EL4 pulsed with altered OVA peptides (G4, H7, R7) at 10^−6 M; 4 h; E:T 3:1; 1.2 mM or 0 mM Mg^2+
# Method: FIG. 4: Magnesium regulates LFA-1 mediated T cell activation and cytotoxicity within physiologic range • (a) Metabolic flux analysis of human EM CD8 T cells upon supra-physiologic activation with anti-CD3 and anti-CD28 Ab, and additional injection of secondary, cross-linking anti-CD3/28 Ab, in medium containing 1.2 mM Mg^2+, 0 mM Mg^2+, or medium which was reconstituted to 1.2 mM Mg^2+ immediately prior to activation (0→1.2 mM Mg^2+). Pooled results from n=6 healthy donors from 3 independent experiments. (b) CD69 expression of PHA T cell blasts upon activation with indicated concentrations of plate-bound anti-CD3 mAb in ±Mg^2+ containing medium. […] Cytotoxicity was quantified after adding luciferin to medium and measuring luminescent signal intensity. […] Cytotoxicity was quantified after adding luciferin to medium and measuring luminescent signal intensity. […]
# OT-I derived CTLs were stimulated with OVA257-264 peptide ([…], Eurogentec) or the altered peptide ligands R7 ([…], Eurogentec), H7 ([…], Eurogentec) or G4 ([…], Eurogentec) at 10 μM for 4 h. […] Cytotoxicity was either evaluated with fluorogenic caspase-3 substrate (as described above) or luciferase-expressing EL4 target cells. Cytotoxicity was quantified after adding luciferin at 0.15 mg ml^−1 (PerkinElmer) to medium and measuring luminescent signal intensity by plate reader (Synergy H1, BioTek).
smiles,measurement,setting,value
"[Mg+2] [Mg^2+, Magnesium]",Activation induced LFA-1 head-piece opening (m24) on EM CD8 T cells,LFA-1; Mg^2+-restricted conditions vs Mg^2+,reduced activation induced LFA-1 head-piece opening
same,Activation induced LFA-1 head-piece opening (m24) on naïve CD8 T cells,"LFA-1; moderate TCR stimulation, ±Mg^2+",did not induce LFA-1 head-piece opening
same,Specific target cell lysis by OT1 CTLs,[1],confirmed across a spectrum of TCR affinities
